Measurements from patent publication US11753407B2, “Compounds for treating spinal muscular atrophy” (PTC Therapeutics, Inc., priority 2012, dated 2023).

What was measured:
[1] = system: SMN2 minigene mRNA (SMN2-A minigene) in HEK293H cells; test: SMN2 minigene mRNA splicing RT-qPCR assay in cultured cells; type: cell-based, human; conditions: Homo sapiens, HEK293-H; concentration increasing full length SMN2 mRNA 1.5-fold relative to vehicle-treated cells; HEK293H cells with SMN2-A minigene, 24 hours, 7-point concentration data; read-out: EC1.5x for production of full length SMN2 mRNA
Method in brief: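 Potency reflects the concentration that lifts full-length SMN2 minigene mRNA 1.5-fold above vehicle in stably transfected HEK293H cells after 24 h of treatment. Transcript abundance came from RT-qPCR as (1+E)^−Ct, normalized to GAPDH; endogenous SMN1/SMN2 are not detected.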

[2] = system: Smn protein in SMA patient fibroblast cells (GM03813); test: Smn protein assay in cultured cells (SMN HTRF); type: cell-based, human; conditions: SMA patient fibroblast cells, 48 hours; for maximum fold (Fold) increase of Smn protein: 7-point concentration data, fold relative to vehicle control; for EC1.5x for Smn protein expression: 7-point concentration curve, SMN HTRF, concentration producing 1.5 times Smn protein vs DMSO vehicle control
Method in brief: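 Smn protein abundance in treated SMA fibroblasts was measured by HTRF after 48 h compound exposure. The reported EC1.5× is the concentration producing 1.5 times vehicle Smn levels.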

SMILES	melting point	EC (1.5-fold increase) [1] [µM]	maximum fold (Fold) increase of Smn protein [2]	EC1.5x for Smn protein expression [2]
C[C@H]1CN(c2ccc3nc(-c4ccc(OC(F)F)cc4)cc(=O)n3c2)CCN1 [Compound 60, 2-[4-(difluoromethoxy)phenyl]-7-[(3S)-3-methylpiperazin-1-yl]-4H-pyrido[1,2-a]pyrimidin-4-one]	166 to 168 °C	1 to 3	* (A maximum fold increase of ≤1.2 is indicated by one star (*))	
O=c1cc(-c2cccc(F)c2)nc2ccc(N3CCNCC3)cn12 [Compound 61, 2-(3-fluorophenyl)-7-(piperazin-1-yl)-4H-pyrido[1,2-a]pyrimidin-4-one]	153 to 156 °C	0.3 to 1	**** (a fold increase between >1.5 and ≤1.65 is indicated by four stars (****))	*** (an EC1.5× between >0.3 μM and ≤1 μM is indicated by three stars (***))
O=c1cc(-c2cccc([N+](=O)[O-])c2)nc2ccc(N3CCNCC3)cn12 [Compound 62, 2-(3-nitrophenyl)-7-(piperazin-1-yl)-4H-pyrido[1,2-a]pyrimidin-4-one]	175 °C (dec.)	0.1 to 0.3	***** (a fold increase >1.65 is indicated by five stars (*****))	*** (an EC1.5× between >0.3 μM and ≤1 μM is indicated by three stars (***))
Cc1ccc(-c2cc(=O)n3cc(N4CCNCC4)ccc3n2)cc1 [Compound 63, 2-(4-methylphenyl)-7-(piperazin-1-yl)-4H-pyrido[1,2-a]pyrimidin-4-one]	192 to 195 °C	1 to 3	** (a fold increase between >1.2 and ≤1.35 is indicated by two stars (**))	
COc1cc(F)c(-c2cc(=O)n3cc(N4CCNCC4)ccc3n2)cc1OC [Compound 64, 2-(2-fluoro-4,5-dimethoxyphenyl)-7-(piperazin-1-yl)-4H-pyrido[1,2-a]pyrimidin-4-one]	177 to 180 °C	3 to 30	** (a fold increase between >1.2 and ≤1.35 is indicated by two stars (**))	
COc1cc(F)c(-c2cc(=O)n3cc(N4CCN[C@@H](C)C4)ccc3n2)cc1OC [Compound 65, 2-(2-fluoro-4,5-dimethoxyphenyl)-7-[(3S)-3-methylpiperazin-1-yl]-4H-pyrido[1,2-a]pyrimidin-4-one]	167 to 170 °C	3 to 30	** (a fold increase between >1.2 and ≤1.35 is indicated by two stars (**))	
COc1ccc(-c2cc(=O)n3cc(N4CC5CCC(C4)N5)ccc3n2)cc1OC [Compound 66, 7-(3,8-diazabicyclo[3.2.1]oct-3-yl)-2-(3,4-dimethoxyphenyl)-4H-pyrido[1,2-a]pyrimidin-4-one]	158 to 161 °C	0.3 to 1	*** (a fold increase between >1.35 and ≤1.5 is indicated by three stars (***))	* (An EC1.5× for Smn protein expression between >3 μM and ≤10 μM is indicated by one star (*))
COc1ccc(-c2cc(=O)n3cc(N4CCNCC4)ccc3n2)cc1C(F)(F)F [Compound 67, 2-[4-methoxy-3-(trifluoromethyl)phenyl]-7-(piperazin-1-yl)-4H-pyrido[1,2-a]pyrimidin-4-one]	177 to 181 °C	0.1 to 0.3	*** (a fold increase between >1.35 and ≤1.5 is indicated by three stars (***))	*** (an EC1.5× between >0.3 μM and ≤1 μM is indicated by three stars (***))
COc1ccc(-c2cc(=O)n3cc(N4CCN[C@H](C)C4)ccc3n2)cc1C(F)(F)F [Compound 68, 2-[4-methoxy-3-(trifluoromethyl)phenyl]-7-[(3R)-3-methylpiperazin-1-yl]-4H-pyrido[1,2-a]pyrimidin-4-one]	205 to 212 °C	0.1 to 0.3	** (a fold increase between >1.2 and ≤1.35 is indicated by two stars (**))	
COc1ccc(-c2cc(=O)n3cc(N4CCN[C@@H](C)C4)ccc3n2)cc1C(F)(F)F [Compound 69, 2-[4-methoxy-3-(trifluoromethyl)phenyl]-7-[(3S)-3-methylpiperazin-1-yl]-4H-pyrido[1,2-a]pyrimidin-4-one]	195 to 200 °C	0.3 to 1	**** (a fold increase between >1.5 and ≤1.65 is indicated by four stars (****))	*** (an EC1.5× between >0.3 μM and ≤1 μM is indicated by three stars (***))
N#Cc1ccc(-c2cc(=O)n3cc(N4CCNCC4)ccc3n2)cc1 [Compound 73, 4-[4-oxo-7-(piperazin-1-yl)-4H-pyrido[1,2-a]pyrimidin-2-yl]benzonitrile]	146 to 151 °C	3 to 30	** (a fold increase between >1.2 and ≤1.35 is indicated by two stars (**))	
Cc1cn2cc(-c3cc(=O)n4cc(N5CCN[C@@H](C)C5)ccc4n3)nc2cn1 [Compound 75, 2-(6-methylimidazo[1,2-a]pyrazin-2-yl)-7-[(3S)-3-methylpiperazin-1-yl]-4H-pyrido[1,2-a]pyrimidin-4-one]	235 to 238 °C	< 0.1	***** (a fold increase >1.65 is indicated by five stars (*****))	**** (an EC1.5x≤0.3 μM is indicated by four stars (****))
O=c1cc(-c2ccc(F)c(C(F)(F)F)c2)nc2ccc(N3CCNCC3)cn12 [Compound 77, 2-[4-fluoro-3-(trifluoromethyl)phenyl]-7-(piperazin-1-yl)-4H-pyrido[1,2-a]pyrimidin-4-one]	214 to 217 °C	0.3 to 1	** (a fold increase between >1.2 and ≤1.35 is indicated by two stars (**))	
COc1c(-c2cc(=O)n3cc(N4CCNCC4)ccc3n2)cccc1C(F)(F)F [Compound 78, 2-[2-methoxy-3-(trifluoromethyl)phenyl]-7-(piperazin-1-yl)-4H-pyrido[1,2-a]pyrimidin-4-one]	194 to 200 °C	1 to 3	* (A maximum fold increase of ≤1.2 is indicated by one star (*))	
O=c1cc(-c2cc(F)cc(F)c2)nc2ccc(N3CCNCC3)cn12 [Compound 79, 2-(3,5-difluorophenyl)-7-(piperazin-1-yl)-4H-pyrido[1,2-a]pyrimidin-4-one]	195 to 198 °C	0.1 to 0.3	**** (a fold increase between >1.5 and ≤1.65 is indicated by four stars (****))	*** (an EC1.5× between >0.3 μM and ≤1 μM is indicated by three stars (***))
O=c1cc(-c2cccc(OC(F)(F)F)c2)nc2ccc(N3CCNCC3)cn12 [Compound 80, 7-(piperazin-1-yl)-2-[3-(trifluoromethoxy)phenyl]-4H-pyrido[1,2-a]pyrimidin-4-one]	140 to 143 °C	1 to 3	* (A maximum fold increase of ≤1.2 is indicated by one star (*))	
COc1ccc(-c2cc(=O)n3cc(N4CCN[C@@H](C)C4)ccc3n2)cc1OC(F)(F)F [Compound 83, 2-[4-methoxy-3-(trifluoromethoxy)phenyl]-7-[(3S)-3-methylpiperazin-1-yl]-4H-pyrido[1,2-a]pyrimidin-4-one]	176 to 178 °C	0.3 to 1	* (A maximum fold increase of ≤1.2 is indicated by one star (*))	
C[C@H]1CN(c2ccc3nc(-c4ccc(O)c(OC(F)(F)F)c4)cc(=O)n3c2)CCN1 [Compound 84, 2-[4-hydroxy-3-(trifluoromethoxy)phenyl]-7-[(3S)-3-methylpiperazin-1-yl]-4H-pyrido[1,2-a]pyrimidin-4-one]	152 to 155 °C	1 to 3	***** (a fold increase >1.65 is indicated by five stars (*****))	** (an EC1.5× between >1 μM and ≤3 μM is indicated by two stars (**))
COc1ccc(-c2cc(=O)n3cc(N4CCN[C@H](C)C4)ccc3n2)cc1F [Compound 86, 2-(3-fluoro-4-methoxyphenyl)-7-[(3R)-3-methylpiperazin-1-yl]-4H-pyrido[1,2-a]pyrimidin-4-one]	175 to 178 °C	0.1 to 0.3	**** (a fold increase between >1.5 and ≤1.65 is indicated by four stars (****))	**** (an EC1.5x≤0.3 μM is indicated by four stars (****))
COc1ccc(-c2cc(=O)n3cc(N4CCN[C@@H](C)C4)ccc3n2)cc1F [Compound 87, 2-(3-fluoro-4-methoxyphenyl)-7-[(3S)-3-methylpiperazin-1-yl]-4H-pyrido[1,2-a]pyrimidin-4-one]	175 to 178 °C	0.1 to 0.3	**** (a fold increase between >1.5 and ≤1.65 is indicated by four stars (****))	*** (an EC1.5× between >0.3 μM and ≤1 μM is indicated by three stars (***))
